Experimental data reported in patent US10052306B2 (LUC THERAPEUTICS, INC., priority 2013, dated 2018).
Like-named read-outs stand apart in the source and are kept apart here.

How the values were obtained:
[1] = target: NR1/NR2B (Homo sapiens (Human), UniProt Q05586+Q13224); test: Cell assay: FDSS Ca2+ influx inhibition in HEK293 cells expressing NR1/NR2B; conditions: Binned Activity;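 also: Fluo-8 Ca2+ signal read on Hamamatsu FDSS 6000 after glutamate, glycine and Ca2+ challenge following 10 min compound preincubation, end/baseline fluorescence ratio compared with MK801 control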
Sequence of NR1/NR2B (Homo sapiens (Human), UniProt Q05586+Q13224) (Q13224 27-1484, other chains not shown): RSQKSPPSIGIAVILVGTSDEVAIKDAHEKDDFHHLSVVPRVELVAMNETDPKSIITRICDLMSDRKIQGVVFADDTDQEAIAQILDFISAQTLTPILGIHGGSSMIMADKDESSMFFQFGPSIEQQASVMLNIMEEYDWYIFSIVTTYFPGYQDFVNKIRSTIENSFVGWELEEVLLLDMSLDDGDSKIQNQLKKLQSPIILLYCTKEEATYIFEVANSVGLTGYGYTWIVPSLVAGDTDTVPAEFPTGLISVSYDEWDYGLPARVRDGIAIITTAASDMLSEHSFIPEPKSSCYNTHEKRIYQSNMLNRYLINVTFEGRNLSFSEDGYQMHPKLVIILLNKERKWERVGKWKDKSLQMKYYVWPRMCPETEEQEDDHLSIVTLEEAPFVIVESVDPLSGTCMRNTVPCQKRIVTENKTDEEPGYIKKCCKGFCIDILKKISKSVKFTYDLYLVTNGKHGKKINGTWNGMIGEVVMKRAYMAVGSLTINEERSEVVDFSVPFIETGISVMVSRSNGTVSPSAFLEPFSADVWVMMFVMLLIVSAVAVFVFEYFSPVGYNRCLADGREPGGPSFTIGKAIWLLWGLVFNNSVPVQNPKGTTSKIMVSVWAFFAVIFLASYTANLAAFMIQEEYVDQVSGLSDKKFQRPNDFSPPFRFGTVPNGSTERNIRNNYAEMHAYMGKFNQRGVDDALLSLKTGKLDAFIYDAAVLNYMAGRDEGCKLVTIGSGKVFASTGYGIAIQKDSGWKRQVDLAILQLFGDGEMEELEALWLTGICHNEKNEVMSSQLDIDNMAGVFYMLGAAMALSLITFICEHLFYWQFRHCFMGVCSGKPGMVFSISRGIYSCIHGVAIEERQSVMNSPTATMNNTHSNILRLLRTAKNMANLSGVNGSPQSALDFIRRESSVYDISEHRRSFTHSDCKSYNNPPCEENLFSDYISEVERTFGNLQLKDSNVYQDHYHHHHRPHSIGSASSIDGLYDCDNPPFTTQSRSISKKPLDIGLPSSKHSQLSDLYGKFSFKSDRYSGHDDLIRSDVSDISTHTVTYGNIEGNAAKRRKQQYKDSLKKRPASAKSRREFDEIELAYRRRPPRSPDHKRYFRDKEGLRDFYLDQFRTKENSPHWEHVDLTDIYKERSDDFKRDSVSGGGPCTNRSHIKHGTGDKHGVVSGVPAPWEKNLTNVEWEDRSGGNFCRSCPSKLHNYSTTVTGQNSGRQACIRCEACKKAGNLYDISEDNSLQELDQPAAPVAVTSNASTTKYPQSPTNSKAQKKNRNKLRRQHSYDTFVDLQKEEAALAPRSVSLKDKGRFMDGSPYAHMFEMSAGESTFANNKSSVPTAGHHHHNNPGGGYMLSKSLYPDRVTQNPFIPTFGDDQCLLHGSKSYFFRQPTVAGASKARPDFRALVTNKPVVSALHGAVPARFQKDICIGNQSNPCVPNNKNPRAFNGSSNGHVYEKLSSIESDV

[2] = target: NR1/NR2B (Homo sapiens (Human), UniProt Q13224); test: as above; conditions: read-out: NR2B NAM IC50
Sequence of NR1/NR2B (Homo sapiens (Human), UniProt Q13224) (Q13224 27-1484, other chains not shown): as above

[3] = HEK293 cells expressing NR1/NR2B, Ca2+ influx, binned NR2B NAM IC50
[4] = HEK293 cells expressing NR1/NR2B, Ca2+ influx

IC50 [1, 3] [µM] | IC50 [2, 4] [µM] | SMILES | IC50 [1] [µM] | IC50 [2] [µM]
> 10 | 10 | COc1cccc(NC(=O)N2C[C@@H]3C[C@@](O)(c4cccc(OC)c4)C[C@@H]3C2)c1 [Example 18, 5-hydroxy-N,5-bis(3-methoxyphenyl)-octahydrocyclopenta[c] pyrrole-2-carboxamide] |  | 
> 10 | 10 | O=C(Nc1ccc(F)cc1F)N1C[C@@H]2C[C@@](O)(c3ccccc3)C[C@@H]2C1 [Example 19, N-(2,4-difluorophenyl)-5-hydroxy-5-phenyl-octahydrocyclopenta[c] pyrrole-2-carboxamide] |  | 
> 10 | 10 | COC(=O)c1ccc(NC(=O)N2C[C@@H]3C[C@@](O)(c4ccccc4C)C[C@@H]3C2)cc1 [Example 22, Methyl 4-(5-hydroxy-5-(o-tolyl)octahydrocyclopenta [c]pyrrole-2-carboxamido)benzoate] |  | 
> 10 | 10 | COc1ccc(C)cc1NC(=O)N1C[C@@H]2C[C@@](O)(c3ccccc3C)C[C@@H]2C1 [Example 23, 5-hydroxy-N-(2-methoxy-5-methylphenyl)-5-(2-methylphenyl)-octahydrocyclopenta[c] pyrrole-2-carboxamide] |  | 
> 10 | 10 | Cc1ccccc1[C@]1(O)C[C@H]2CN(C(=O)Nc3ccc(Cl)c(C(F)(F)F)c3)C[C@H]2C1 [Example 24, N-[4-chloro-3-(trifluoromethyl)phenyl]-5-hydroxy-5-(2-methylphenyl)-octahydrocyclopenta[c] pyrrole-2-carboxamide] |  | 
> 10 | 10 | O=C(Nc1ccccc1)N1C[C@@H]2C[C@@](O)(c3ccccc3)C[C@@H]2C1 [Example 25, 5-hydroxy-N,5-diphenyl-octahydrocyclopenta[c] pyrrole-2-carboxamide] |  | 
> 10 | 10 | N#Cc1cccc(NC(=O)N2C[C@@H]3C[C@@](O)(c4ccccc4)C[C@@H]3C2)c1 [Example 26, N-(3-cyanophenyl)-5-hydroxy-5-phenyl-octahydrocyclopenta[c] pyrrole-2-carboxmaide] |  | 
 |  | COc1ccc(C)cc1NC(=O)N1C[C@@H]2C[C@@](O)(c3ccccc3)C[C@@H]2C1 [Example 27, 5-hydroxy-N-(2-methoxy-5-methylphenyl)-5-phenyl-octahydrocyclopenta[c] pyrrole-2-carboxamide] | > 10 | 10
> 10 | 10 | COC(=O)c1ccc(NC(=O)N2C[C@@H]3C[C@@](O)(c4ccccc4)C[C@@H]3C2)cc1 [Example 28, methyl 4-[({5-hydroxy-5-phenyl-octahydrocyclopenta[c]pyrrol-2-yl}carbonyl)amino] benzoate] |  | 
> 10 | 10 | COc1cccc([C@]2(O)C[C@H]3CN(C(=O)Nc4ccccc4)C[C@H]3C2)c1 [Example 29, 5-hydroxy-5-(3-methoxyphenyl)-N-phenyl-octahydrocyclopenta[c] pyrrole-2-carboxamide] |  | 
 |  | Cc1ccccc1[C@]1(O)C[C@H]2CN(C(=O)Nc3ccccc3)C[C@H]2C1 [Example 30, 5-hydroxy-5-(2-methylphenyl)-N-phenyl-octahydrocyclopenta[c] pyrrole-2-carboxamide] | > 10 | 10
> 10 | 10 | COc1cccc([C@]2(O)C[C@H]3CN(C(=O)Nc4cc(C)ccc4OC)C[C@H]3C2)c1 [Example 33, 5-hydroxy-N-(2-methoxy-5-methylphenyl)-5-(3-methoxyphenyl)-octahydrocyclopenta[c] pyrrole-2-carboxamide] |  | 
> 10 | 10 | Cc1ccc(NC(=O)N2C[C@@H]3C[C@@](O)(c4ccc(F)cc4)C[C@@H]3C2)cc1 [Example 36, 5-(4-fluorophenyl)-5-hydroxy-N-(4-methylphenyl)-octahydrocyclopenta[c] pyrrole-2-carboxamide] |  | 
> 10 | 10 | COc1ccc(C)cc1NC(=O)N1C[C@@H]2C[C@@](O)(c3ccc(F)cc3)C[C@@H]2C1 [Example 42] |  | 
> 10 | 10 | O=C(Nc1cccnc1)N1C[C@@H]2C[C@@](O)(c3ccccc3)C[C@@H]2C1 [Example 44] |  | 
> 10 | 10 | CC(C)(C)c1ccc([C@]2(O)C[C@H]3CN(C(=O)Nc4cccc(C#N)c4)C[C@H]3C2)cc1 [Example 52] |  | 
> 10 | 10 | CC(C)(C)c1ccc([C@]2(O)C[C@H]3CN(C(=O)Nc4ccc(Cl)c(C(F)(F)F)c4)C[C@H]3C2)cc1 [Example 53] |  | 

IC50 [1, 3] [µM] | IC50 [2, 4] [µM] | SMILES | IC50 [1] [µM] | IC50 [2] [µM]
> 10 | 10 | CC(C)(C)c1ccc([C@]2(O)C[C@H]3CN(C(=O)Nc4cccc(C(F)(F)F)c4)C[C@H]3C2)cc1 [Example 55, 5-(4-tert-butylphenyl)-5-hydroxy-N-[3-(trifluoromethyl)phenyl]-octahydrocyclopenta[c] pyrrole-2-carboxamide] |  | 
> 10 | 10 | CC(C)(C)c1ccc([C@]2(O)C[C@H]3CN(C(=O)Nc4cccc(Cl)c4)C[C@H]3C2)cc1 [Example 56, 5-(4-tert-butylphenyl)-N-(3-chlorophenyl)-5-hydroxy-octahydrocyclopenta[c] pyrrole-2-carboxamide] |  | 
> 10 | 10 | O=C(CN1C[C@@H]2C[C@@](O)(c3ccccc3)C[C@@H]2C1)c1cccc(F)c1 [Example 61, 1-(3-fluorophenyl)-2-{5-hydroxy-5-phenyl-octahydrocyclopenta[c]pyrrol-2-yl}ethan-1-one] |  | 
> 10 | 10 | COc1cccc([C@]2(O)C[C@H]3CN(CC(=O)c4cccc(F)c4)C[C@H]3C2)c1 [Example 62, 1-(3-fluorophenyl)-2-[5-hydroxy-5-(3-methoxyphenyl)-octahydrocyclopenta[c]pyrrol-2-yl]ethan-1-one] |  | 
> 10 | 10 | O[C@@]1(c2ccc(F)cc2)C[C@H]2CN(c3ccccn3)C[C@H]2C1 [Example 80, 5-(4-fluorophenyl)-2-(pyridin-2-yl)-octahydrocyclopenta[c] pyrrol-5-ol] |  | 
> 10 | 10 | O[C@@]1(c2ccc(F)cc2)C[C@H]2CN(c3cccc(C(F)(F)F)n3)C[C@H]2C1 [Example 81, 5-(4-fluorophenyl)-2-[6-(trifluoromethyl)pyridin-2-yl]-octahydrocyclopenta[c] pyrrol-5-ol] |  | 
> 10 | 10 | Cc1ccccc1[C@]1(O)C[C@H]2CN(c3ccccn3)C[C@H]2C1 [Example 82, 5-(2-methylphenyl)-2-(pyridin-2-yl)-octahydrocyclopenta[c] pyrrol-5-ol] |  | 
> 10 | 10 | Cc1ccccc1[C@]1(O)C[C@H]2CN(c3cccc(C(F)(F)F)n3)C[C@H]2C1 [Example 84, 5-(2-methylphenyl)-2-[6-(trifluoromethyl)pyridin-2-yl]-octahydrocyclopenta[c] pyrrol-5-ol] |  | 
> 10 | 10 | Cc1cccc(N2C[C@@H]3C[C@@](O)(c4ccccc4)C[C@@H]3C2)n1 [Example 85, 2-(6-methylpyridin-2-yl)-5-phenyl-octahydrocyclopenta[c] pyrrol-5-ol] |  | 
> 10 | 10 | Cc1cccc(N2C[C@@H]3C[C@@](O)(c4ccccc4C)C[C@@H]3C2)n1 [Example 86, 5-(2-methylphenyl)-2-(6-methylpyridin-2-yl)-octahydrocyclopenta[c] pyrrol-5-ol] |  | 
> 10 | 10 | Cc1cccc(N2C[C@@H]3C[C@@](O)(c4ccc(F)cc4)C[C@@H]3C2)n1 [Example 87, 5-(4-fluorophenyl)-2-(6-methylpyridin-2-yl)-octahydrocyclopenta[c] pyrrol-5-ol] |  | 
> 10 | 10 | CC(C)(C)c1ccc([C@]2(O)C[C@H]3CN(c4ccccn4)C[C@H]3C2)cc1 [Example 88, 5-(4-tert-butylphenyl)-2-(pyridin-2-yl)-octahydrocyclopenta[c] pyrrol-5-ol] |  | 
> 10 | 10 | Cc1cccc(N2C[C@@H]3C[C@@](O)(c4ccc(C(C)(C)C)cc4)C[C@@H]3C2)n1 [Example 89, 5-(4-tert-butylphenyl)-2-(6-methylpyridin-2-yl)-octahydrocyclopenta[c] pyrrol-5-ol] |  | 
> 10 | 10 | O=C(CCN1C[C@@H]2C[C@@](O)(c3ccccc3)C[C@@H]2C1)c1ccc(O)cc1 [Example 97, 3-(5-hydroxy-5-phenylhexahydrocyclo-penta[c]pyrrol-2(1H)-yl)-1-(4-hydroxyphenyl)propan-1-one] |  | 
> 10 | 10 | Oc1ccc(C(O)CCN2C[C@@H]3C[C@@](O)(c4ccccc4)C[C@@H]3C2)cc1 (stereo partly shown) [Example 98, 2-(3-hydroxy-3-(4-hydroxyphenyl)propyl)-5-phenyloctahydrocyclopen-ta[c]pyrrol-5-ol] |  | 
> 10 | 10 | COc1ccc(NC(=O)N2C[C@H]3C[C@@H](c4ccccc4)C[C@H]3C2)cc1 [Example 99, 2 N-(4-methoxyphenyl)-5-phenylhexahydrocyclo-penta[c]pyrrole-2(1H)-carboxamide] |  | 

SMILES | IC50 [1, 3] [µM] | IC50 [2, 4] [µM] | IC50 [1] [µM] | IC50 [2] [µM]
CC(C)(C)c1ccc([C@]2(O)C[C@H]3CN(C(=O)Nc4ccccc4)C[C@H]3C2)cc1 [Example 54] | > 10 | 10 |  | 
COc1cccc([C@]2(O)C[C@H]3CN(CC(=O)c4ccccc4)C[C@H]3C2)c1 [Example 59, 2-[5-hydroxy-5-(3-methoxyphenyl)-octahydrocyclopenta[c]pyrrol-2-yl]-1-phenylethan-1-one] | > 10 |  |  | 10
